US11458123B2 (Arvinas, Inc., priority 2016, dated 2022)

test system: tau protein; assay: Tau protein in vitro degradation assay (Western blot, Tau-13 antibody); format: cell-based, human; conditions: SK-N-SH cells; 72 hours of incubation; tested at 300 nM, 100 nM, 33 nM and 11 nM; Western blot, Tau-13 antibody
Summary of the method: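 Tau degradation read by Tau-13 Western blot (detects all human tau forms) of SDS-PAGE-resolved lysates from SK-N-SH cells. Cells were plated at least 18 h before 72 h exposure to PROTACs at either 1000/300/100 nM or 300/100/33/11 nM.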

| SMILES | Degradation activity (tau protein remaining; highest amount of degradation observed at any dosage) | Degradation activity* (highest amount of degradation observed at any dosage; tau protein remaining) |
| --- | --- | --- |
| Cn1c2cc(-c3ccc(OCCOCCOCCOCCOCCOc4ccc5c(c4)C(=O)N(C4CCC(=O)NC4=O)C5=O)nc3)ccc2c2cncc(Cl)c21 (stereo not drawn) [Compound 195, 5-((14-((5-(4-chloro-5-methyl-5H-pyrido[4,3-b]indol-7-yl)pyridin-2-yl)oxy)-3,6,9,12-tetraoxatetradecyl)oxy)-2-(2,6-dioxopiperidin-3-yl)isoindoline-1,3-dione] | A (≤50% tau protein remaining after 72 hours of incubation with the test compound) |  |
| Cn1c2ccncc2c2ccc(-c3ccc(O[C@H]4C[C@@H](OCCCOCCCOC5CN(c6ccc7c(c6)C(=O)N(C6CCC(=O)NC6=O)C7=O)C5)C4)nc3)cc21 (stereo partly drawn) [Compound 170, 2-(2,6-dioxopiperidin-3-yl)-5-(3-(3-(3-((1 s,3 s)-3-((5-(5-methyl-5H-pyrido[4,3-b]indol-7-yl)pyridin-2-yl)oxy)cyclobutoxy)propoxy)propoxy)azetidin-1-yl)isoindoline-1,3-dione] | A (≤50% tau protein remaining after 72 hours of incubation with the test compound) |  |
| Cn1c2ccncc2c2ccc(-c3cnc(OCCOCCOCCOCCOCCOc4ccc5c(c4)C(=O)N(C4CCC(=O)NC4=O)C5=O)c(C#N)c3)cc21 (stereo not drawn) [Compound 203, 2-((14-((2-(2,6-dioxopiperidin-3-yl)-1,3-dioxoisoindolin-5-yl)oxy)-3,6,9,12-tetraoxatetradecyl)oxy)-5-(5-methyl-5H-pyrido[4,3-b]indol-7-yl)nicotinonitrile] | A (≤50% tau protein remaining after 72 hours of incubation with the test compound) |  |
| O=C1CCC(N2C(=O)c3ccc(OCCCCCN4CCC(O[C@H]5C[C@H](Oc6ccc(-c7ccc8c(c7)[nH]c7ccncc78)cn6)C5)CC4)cc3C2=O)C(=O)N1 (stereo partly drawn) [Compound 65, 5-((5-(4-((1r,3r)-3-((5-(5H-pyrido[4,3-b]indol-7-yl)pyridin-2-yl)oxy)cyclobutoxy)piperidin-1-yl)pentyl)oxy)-2-(2,6-dioxopiperidin-3-yl)isoindoline-1,3-dione] |  | C (>80% tau protein remaining after 72 hours of incubation with the test compound) |
| Cn1c2ccncc2c2ccc(-c3ccc(O[C@H]4C[C@H](Oc5ccc(CCCCCOc6ccc7c(c6)C(=O)N(C6CCC(=O)NC6=O)C7=O)nc5)C4)nc3)cc21 (stereo partly drawn) [Compound 95, 2-(2,6-dioxopiperidin-3-yl)-5-((5-(5-((1r,3r)-3-((5-(5-methyl-5H-pyrido[4,3-b]indol-7-yl)pyridin-2-yl)oxy)cyclobutoxy)pyridin-2-yl)pentyl)oxy)isoindoline-1,3-dione] |  | C (>80% tau protein remaining after 72 hours of incubation with the test compound) |
| Cn1c2ccncc2c2ccc(-c3ccc(O[C@H]4C[C@H](OC5CCN(c6cc(OCCOc7ccc8c(c7)C(=O)N(C7CCC(=O)NC7=O)C8=O)cnn6)CC5)C4)nc3)cc21 (stereo partly drawn) [Compound 158, 2-(2,6-dioxopiperidin-3-yl)-5-(2-((6-(4-((1r,3r)-3-((5-(5-methyl-5H-pyrido[4,3-b]indol-7-yl)pyridin-2-yl)oxy)cyclobutoxy)piperidin-1-yl)pyridazin-4-yl)oxy)ethoxy)isoindoline-1,3-dione] |  | C (>80% tau protein remaining after 72 hours of incubation with the test compound) |
| Cn1c2ccncc2c2ccc(-c3cnc(OCCOCCOCCOCCOCCOc4ccc5c(c4)C(=O)N(C4CCC(=O)NC4=O)C5=O)c(F)c3)cc21 (stereo not drawn) [Compound 139, 2-(2,6-dioxopiperidin-3-yl)-5-((14-((3-fluoro-5-(5-methyl-5H-pyrido[4,3-b]indol-7-yl)pyridin-2-yl)oxy)-3,6,9,12-tetraoxatetradecyl)oxy)isoindoline-1,3-dione] |  | B (≤80% and >50% tau protein remaining after 72 hours of incubation with the test compound) |
| O=C1CCC(N2C(=O)c3ccc(OCCOCC#Cc4ccc(O[C@H]5C[C@H](Oc6ccc(-c7ccc8c(c7)[nH]c7ccncc78)cn6)C5)cn4)cc3C2=O)C(=O)N1 (stereo partly drawn) [Compound 173, 5-(2-((3-(5-((1r,3r)-3-((5-(5H-pyrido[4,3-b]indol-7-yl)pyridin-2-yl)oxy)cyclobutoxy)pyridin-2-yl)prop-2-yn-1-yl)oxy)ethoxy)-2-(2,6-dioxopiperidin-3-yl)isoindoline-1,3-dione] | A (≤50% tau protein remaining after 72 hours of incubation with the test compound) |  |
| Cn1c2ccncc2c2ccc(-c3ccc(O[C@H]4C[C@H](Oc5ccc(CCCCCCOc6ccc7c(c6)C(=O)N(C6CCC(=O)NC6=O)C7=O)cc5)C4)nc3)cc21 (stereo partly drawn) [Compound 147, 2-(2,6-dioxopiperidin-3-yl)-5-((6-(4-((1r,3r)-3-((5-(5-methyl-5H-pyrido[4,3-b]indol-7-yl)pyridin-2-yl)oxy)cyclobutoxy)phenyl)hexyl)oxy)isoindoline-1,3-dione] |  | C (>80% tau protein remaining after 72 hours of incubation with the test compound) |
| O=C1CCC(N2C(=O)c3ccc(OCCCCCN4CCN(CCCc5ccc(-c6ccc7c8cnccc8n(CC(F)(F)F)c7c6)cn5)CC4)cc3C2=O)C(=O)N1 (stereo not drawn) [Compound 61, 2-(2,6-dioxopiperidin-3-yl)-5-((5-(4-(3-(5-(5-(2,2,2-trifluoroethyl)-5H-pyrido[4,3-b]indol-7-yl)pyridin-2-yl)propyl)piperazin-1-yl)pentyl)oxy)isoindoline-1,3-dione] |  | C (>80% tau protein remaining after 72 hours of incubation with the test compound) |
| Cn1c2ccncc2c2ccc(-c3ccc(OCCOCCOCCOCCOCCOc4ccc5c(c4)C(=O)N(C4CCC(=O)NC4=O)C5=O)nc3C(F)(F)F)cc21 (stereo not drawn) [Compound 143, 2-(2,6-dioxopiperidin-3-yl)-5-((14-((5-(5-methyl-5H-pyrido[4,3-b]indol-7-yl)-6-(trifluoromethyl)pyridin-2-yl)oxy)-3,6,9,12-tetraoxatetradecyl)oxy)isoindoline-1,3-dione] |  | B (≤80% and >50% tau protein remaining after 72 hours of incubation with the test compound) |

same assay, conditions: SK-N-SH cells; 72 hours of incubation; tested at 1000 nM, 300 nM and 100 nM

| SMILES | Activity* (highest amount of degradation observed at any dosage, as tau protein remaining) |
| --- | --- |
| Cc1ncsc1-c1ccc(CNC(=O)[C@@H]2C[C@@H](O)CN2C(=O)[C@@H](NC(=O)COCCOCCOCCOCCOc2ccc3nc(-c4ccc(N(C)C)cc4)ccc3c2)C(C)(C)C)cc1 [Compound 31] | C (>80% tau protein remaining after 72 hours of incubation with the test compound) |
| Cc1ncsc1-c1ccc([C@H](C)NC(=O)[C@@H]2C[C@@H](O)CN2C(=O)[C@@H](NC(=O)COCCOCCOCCOCCN2CCN(c3ccn4c(n3)nc3ccccc34)CC2)C(C)(C)C)cc1 [Compound 16, (2S,4R)-1-((S)-17-(4-(benzo[4,5]imidazo[1,2-a]pyrimidin-2-yl)piperazin-1-yl)-2-(tert-butyl)-4-oxo-6,9,12,15-tetraoxa-3-azaheptadecanoyl)-4-hydroxy-N—((S)-1-(4-(4-methylthiazol-5-yl)phenyl)ethyl)pyrrolidine-2-carboxamide] | C (>80% tau protein remaining after 72 hours of incubation with the test compound) |
| O=C1CCC(N2Cc3c(OCCOCCOCCOCCOCCOc4ccc(-c5ccc6c(c5)[nH]c5ccncc56)cn4)cccc3C2=O)C(=O)N1 (stereo not drawn) [Compound 50, 3-(4-(14-(5-(5H-pyrido[4,3-b]indol-7-yl)pyridin-2-yloxy)-3,6,9,12-tetraoxatetradecyloxy)-1-oxoisoindolin-2-yl)piperidine-2,6-dione] | A (≤50% tau protein remaining after 72 hours of incubation with the test compound) |
| O=C1CCC(N2C(=O)c3cccc(NCCOCCOCCOCCOCCN4CCN(c5ccn6c(n5)nc5ccccc56)CC4)c3C2=O)C(=O)N1 (stereo not drawn) [Compound 26, 4-((14-(4-(benzo[4,5]imidazo[1,2-a]pyrimidin-2-yl)piperazin-1-yl)-3,6,9,12-tetraoxatetradecyl)amino)-2-(2,6-dioxopiperidin-3-yl)isoindoline-1,3-dione] | C (>80% tau protein remaining after 72 hours of incubation with the test compound) |
| Cc1ncsc1-c1ccc(CNC(=O)[C@@H]2C[C@@H](O)CN2C(=O)[C@@H](NC(=O)COCCCOCCCOc2ccc3nc(-c4ccc(N(C)C)cc4)ccc3c2)C(C)(C)C)cc1 [Compound 35, (2S,4R)-1-((S)-2-(2-(3-(3-(2-(4-(dimethylamino)phenyl)quinolin-6-yloxy)propoxy)propoxy)acetamido)-3,3-dimethylbutanoyl)-4-hydroxy-N-(4-(4-methylthiazol-5-yl)benzyl)pyrrolidine-2-carboxamide] | C (>80% tau protein remaining after 72 hours of incubation with the test compound) |
| CN(C)c1ccc(-c2ccc3cc(OCCCOCCOCCOCCNc4cccc5c4C(=O)N(C4CCC(=O)NC4=O)C5=O)ccc3n2)cc1 (stereo not drawn) [Compound 44, 4-(2-(2-(2-(3-(2-(4-(dimethylamino)phenyl)quinolin-6-yloxy)propoxy)ethoxy)ethoxy)ethylamino)-2-(2,6-dioxopiperidin-3-yl)isoindoline-1,3-dione] | C (>80% tau protein remaining after 72 hours of incubation with the test compound) |
| Cc1ncsc1-c1ccc([C@H](C)NC(=O)[C@@H]2C[C@@H](O)CN2C(=O)[C@@H](NC(=O)COCCOCCOCCOCCCOc2ccc3nc(-c4ccc(N(C)C)cc4)ccc3c2)C(C)(C)C)cc1 [Compound 39, (2S,4R)-1-((S)-2-tert-butyl-18-(2-(4-(dimethylamino)phenyl)quinolin-6-yloxy)-4-oxo-6,9,12,15-tetraoxa-3-azaoctadecane)-4-hydroxy-N—((S)-1-(4-(4-methylthiazol-5-yl)phenyl)ethyl)pyrrolidine-2-carboxamide] | C (>80% tau protein remaining after 72 hours of incubation with the test compound) |
